Laboratory results: patent publication US20200253860A1, “TOPICAL COMPOSITION FOR ANTIAGING BENEFITS” (Conopco, Inc., d/b/a UNILEVER, priority 2017, published 2020)

System: Nrf2
Test: Nrf2 activation in AREc32 cells (luciferase assay)
Assay type: cell-based
Settings: for Nrf2 activation fold increase wrt the control: note to Table 1, concentration not stated
Method: The AREc32 cells were obtained from CRX biosciences (Dundee, Scotland, UK). AREc32 cells were seeded into 96-well plates (flat-bottom white, opaque, sterile, with lids) at a density of 2×10^4, cells/well in 100 μL of complete media per well. Cell plates were then incubated at 37° C., 5% CO2 in a 95% humidified incubator for 24 hours before active addition. Tert butylhydroquinone (TBHQ) was used as an assay positive control. For performing the Nrf2 activity assay, the cells were lysed using Passive Lysis Buffer (PLB) (5×) procured from Promega. The PLB was diluted in a 1:5 ratio with distilled water to make 1× PLB solution. 20 μL of 1× PLB was added to each well of the 96 well plate, including 2 wells without cell (control wells). The plate was covered with aluminium foil to protect from light and incubated for 20 minutes at room temperature, on a rocker incubator. After 20 minutes, 18 μL of the cell lysate was transferred from the transparent 96 well cell culture plate to an opaque, white, flat bottom 96-well plate. The white flat bottom plates were proceeded for Luciferase assay. The Luciferase assay was performed by using Luciferase Assay System, from Promega. 80 μL of the Luciferase Reagent was added using the injector on the TECAN infinite M1000 instrument. Luminescence was measured for a period of 10 seconds using the Green 1 filter. The typical delay time of 2 seconds, and read time of 10 seconds was used. 4 readings were taken from each well within 1 min. The plate was advanced to the next well for a repeat of the inject-then-read process. The luciferase value was represented as fold change over control in Table 1.

Structure (SMILES) | Nrf2 activation fold increase wrt the control | Nrf2 activation Fold change wrt control (10 μM)
CCC/C=C/C=O [E-2-Hexenal] | 1.1 fold | –
C=CC(C)(O)CCC=C(C)C (stereo not drawn) [Linalool] | barely any change | –
CC(C)(C)c1cc(O)ccc1O [TBHQ, Tert butylhydroquinone] | – | 4.5 fold
